From patent US20240158425A1, “MODIFIED ADENINES” (NUCLERA LTD, priority 2021, published 2024)

Experiments:
Type in all cases: physicochemical
[1] = Stability of 2-halogenated 2′-deoxyadenosines and 2′-deoxyadenosine in NDS buffer (sodium nitrite, pH 5.5), LC/MS; conditions: for Reaction in NDS buffer (products formed; deaminated nucleoside): LC/MS
Method: (§1) Analytical LC/MS was performed on the Agilent 1100 Series system. Nucleosides were analysed using gradient of acetonitrile in 20 mM NH4OAc, pH 4.5. The 1 M stock solution of NH4OAc, pH 4.5 was prepared by dissolving NH4OAc (g) in H2O and adjusted to pH 4.5 with acetic acid. This was further diluted with water to the concentrations required for the chromatography.
(§2) Column: Ascentis Express C18 15×4.6 mm, 5 μm; Column temperature 30° C., Flow rate 1 mL/min, UV detection 254 nm.
2 M sodium acetate pH 5.5 buffer was made from sodium acetate trihydrate (2.72 g) made up to 9.5 mL with water, then titrated to pH 5.5 with acetic acid, and finally made up to 10 mL. NDS buffer was made from acetate solution (3.934 mL), sodium nitrite (380 mg, 5.5 mmol) and water (3.934 mL), then adjusted to pH 5.5 with 10 M sodium hydroxide (˜1 drop required). 2-chloro-2′-deoxyadenosine (0.5 mg), 2-fluoro-2′-deoxyadenosine (0.5 mg) and 2′-deoxyadenosine (0.5 mg) as a control were respectively placed in three vials and each dissolved in 1 mL solution of NDS buffer. The stability was monitored at intervals using LC/MS.

[2] = Stability of 8-aza-adenosine and 2′-deoxyadenosine in NDS buffer, LC/MS; conditions: for Reaction in NDS buffer (products formed; deaminated nucleoside): LC/MS
Method: A solution of NDS made up from sodium nitrite, sodium acetate pH 5.5) and titrated to pH 5.5 with 10 M NaOH was obtained (2 mL).
1 mL aliquots of this solution were added to 8-aza-2′-dA (0.5 mg) and 2′-dA (0.5 mg, as a control to compare how additional N atom at 8 position of nucleobase affects reactivity NH2—C6 group with NDS) and analysed at intervals using LC/MS.

[3] = Stability in Oxime Removal Solution (1×ORS) buffer, monitored by LC/MS; conditions: 1×ORS buffer (methoxyamine), 24 h at 37 deg C.
Method: as §1, §2
Stock solution of ORS buffer (2×) was prepared from methoxyamine hydrochloride (60 mg, 0.71 mmol), water (MilliQ) (200 uL), pH 5.5 sodium acetate (200 uL) and 10 M sodium hydroxide (53.4 uL) and water (1.4 mL). 2-chloro-2′-deoxyadenosine (1 mg) was dissolved in milliQ water (0.5 mL) and 2×ORS (0.5 mL) was added. The resultant solution was incubated at 37 deg C. and the stability was monitored at intervals using LC/MS. […] 2. Stability of 2-fluoro-2′-deoxyadenosine in ORS Buffer
2-fluoro-2′-deoxyadenosine (1 mg) was dissolved in milliQ water (0.5 mL) and 2×ORS (0.5 mL) was added. The resultant solution was incubated at 37 deg C. and the stability was monitored at intervals using LC/MS.

[4] = buffer, 24 h, 0.5 mg/mL, pH 5.5
[5] = buffer, 48 h, 0.5 mg/mL, pH 5.5
[6] = buffer, 120 h, 0.5 mg/mL, pH 5.5

With `Nc1ncnc2c1ncn2[C@H]1C[C@H](O)[C@@H](CO)O1` [dA, 2′-deoxyadenosine] the “Reaction in NDS buffer (products formed; deaminated nucleoside)” value (from here on “Reaction in NDS buffer”) ([1]; NDS buffer) was “react in the NDS buffer giving rise to 1 product”, the “In (remaining nucleoside)” value [1, 4] was 4.571 and the Remaining nucleoside [1, 4] was 96.66%. For the same compound, the “In (remaining nucleoside)” value [1, 5] was 4.531, the Remaining nucleoside [1, 5] was 92.85% and the “In (remaining nucleoside)” value [1, 6] was 4.416. The Remaining nucleoside [1, 6] was 82.77%, the “In (nucleoside peak area %)” value ([2]; 24 h) was 4.545 and the “Remaining nucleoside, peak area %” value ([2]; 24 h) was 94.15 peak area %. For the same compound, the “In (nucleoside peak area %)” value ([2]; 96 h) was 4.352, the “Remaining nucleoside, peak area %” value ([2]; 96 h) was 77.6 peak area % and the “In (nucleoside peak area %)” value ([2]; 120 h) was 4.29. The “Remaining nucleoside, peak area %” value ([2]; 120 h) was 73 peak area %, the “In (nucleoside peak area %)” value ([2]; 146 h) was 4.248 and the “Remaining nucleoside, peak area %” value ([2]; 146 h) was 70 peak area %. The “Reaction in NDS buffer” value [2] was “react in the NDS buffer giving rise to 1 product”.
With `Nc1nc(Cl)nc2c1ncn2[C@H]1C[C@H](O)[C@@H](CO)O1` [2-Cl-dA, 2-chloro-2′-deoxyadenosine] the “Stability in 1×ORS buffer (formation of products)” value [3] was “did not lead to any products”, the “In (remaining nucleoside)” value ([1]; NDS buffer, 24 h) was 4.599 and the Remaining nucleoside ([1]; NDS buffer, 24 h) was 99.42%. For the same compound, the “In (remaining nucleoside)” value ([1]; NDS buffer, 48 h) was 4.592, the Remaining nucleoside ([1]; NDS buffer, 48 h) was 98.66% and the “In (remaining nucleoside)” value ([1]; NDS buffer, 120 h) was 4.57. The Remaining nucleoside ([1]; NDS buffer, 120 h) was 96.54%, the “Reaction in NDS buffer” value ([1]; NDS buffer) was “react in the NDS buffer giving rise to 1 product” and the “Deamination in NDS buffer, times slower than 2′-dA” value ([1]; NDS buffer, same conditions as 2′-dA) was 5.5 ×.
In the case of `Nc1ncnc2c1nnn2[C@@H]1O[C@H](CO)[C@@H](O)[C@H]1O` [8-aza-A, 8-aza-adenosine], the “In (nucleoside peak area %)” value ([2]; 24 h) is reported as 4.592, the “Remaining nucleoside, peak area %” value ([2]; 24 h) is reported as 98.65 peak area % and the “In (nucleoside peak area %)” value ([2]; 96 h) is reported as 4.538. For the same compound, the “Remaining nucleoside, peak area %” value ([2]; 96 h) was 93.49 peak area %, the “In (nucleoside peak area %)” value ([2]; 120 h) was 4.519 and the “Remaining nucleoside, peak area %” value ([2]; 120 h) was 91.74 peak area %. The “In (nucleoside peak area %)” value ([2]; 146 h) was 4.5, the “Remaining nucleoside, peak area %” value ([2]; 146 h) was 90 peak area % and the “Reaction in NDS buffer” value [2] was “react in the NDS buffer giving rise to 1 product”. The “Deamination in NDS buffer, times slower than 2′-dA” value ([2]; same conditions as 2′-dA) was 3.2 ×.
